Assay results from patent publication US10517842B2, “Methods of modulating miRNA levels and compositions for use in the same” (Los Angeles Biomedical Research Institute at Harbor-UCLA …, priority 2017, dated 2019).

What was measured:
3′UTR of COL3A1 = assay: 3′UTR luciferase reporter assay in LSMC; format: cell-based, human; conditions: Tranilast 200 μM vs DMSO set as 1, 48 hrs before and 48 hrs after transfection, LSMC; P<0.05
Method: LSMC were seeded at 3.5×10^4 cells/well in 6-well plates and at sub-confluence were treated with Tranilast (200 μM) or DMSO as control for 48 hrs. Tranilast and DMSO-treated cells were then transfected with luciferase reporter plasmids (1 μg/well) containing 3′ UTR sequences for COL3A1 or CDK2 (GeneCopoeia, Inc., Rockville, Md.) using PureFection transfection reagent (System Biosciences, Inc., Palo Alto, Calif.). After 48 hrs of transfection Firefly and Renilla luciferase activities were measured using the Dual-Luciferase Reporter Assay System (Promega). Firefly luciferase activity was normalized to Renilla luciferase activity. The level of induction was reported as mean±SEM of three experiments and compared with a ratio in cells treated with DMSO independently set as 1.
FIG. 10A: The relative luciferase activity in LSMC treated with Tranilast (200 μM) or DMSO as control for 48 hrs prior to transfection with Renilla and Firefly luciferase reporter plasmids carrying a 3′UTR fragment of COL3A1, CDK2 or IL8 and incubated with Tranilast (200 μM) or DMSO containing medium after transfection for another 48 hrs. The relative luciferase activity is presented as the ratio of Firefly:Renilla as compared to DMSO which was independently set as 1. The results are presented as mean±SEM of at least three sets of independent experiments using LSMC isolated from 3 patients. FIG. 10B: Protein expression of COL3A1 and CDK2 was determined after transfection of anti-miR scrambled oligonucleotides (aNC) or anti-miR-29c oligonucleotides (a29c) in LSMC for 72 hrs with DMSO or Tranilast (200 μM) treatment for the last 48 hrs. GAPDH was used as loading control. The result is one representative of at least three sets of independent experiments using LSMC isolated from 3 patients. FIG. 10C: The bar graph presented the relative band densities as mean±SEM of at least three independent experiments. Inhibition of protein expression by Tranilast treatment was calculated relative to changes in corresponding DMSO controls in cells transfected with aNC or anti-miR-29c.

leiomyoma xenografts = assay: Leiomyoma xenograft mouse model (LSMC under the kidney capsule); format: in vivo, CB-17 SCID/beige mice; conditions: Tranilast 50 mg/kg/day i.p. daily for 3 weeks, mice
Source text: We injected primary leiomyoma cells under the kidney capsule of CB-17 SCID/beige mice using a 27 g needle as previously reported (Ishikawa et al., “Progesterone is essential for maintenance and growth of uterine leiomyoma,” Endocrinology (2010) 151: 2433-2442; Ono et al, “Paracrine activation of WNT/beta-catenin pathway in uterine leiomyoma stem cells promotes tumor growth,” Proceedings of the National Academy of Sciences of the United States of America (2013) 110: 17053-17058). After two weeks we excised the xenograft, fixed the tissue, embedded it in paraffin and obtained 5 μm sections for staining. […] This animal model is used to evaluate the efficacy of Tranilast on tumor initiation, progression, histology, and expression of miR-200c and miR-29c and their respective target genes.
Freshly isolated LSMC are injected under the kidney capsule of female ovariectomized CB-17 SCID/beige mice implanted with pellet containing estradiol (0.05 mg/90 d release) and progesterone (25 mg/60 d release) as previously reported (Ishikawa et al., “Progesterone is essential for maintenance and growth of uterine leiomyoma,” Endocrinology (2010) 151: 2433-2442; Ono et al, “Paracrine activation of WNT/beta-catenin pathway in uterine leiomyoma stem cells promotes tumor growth,” Proceedings of the National Academy of Sciences of the United States of America (2013) 110: 17053-17058). For injections of leiomyoma cells, freshly isolated cells from hysterectomy specimens are suspended in rat-tail collagen (type I) solution (BD Biosciences) at 1×10^6 cells/10 μl and grafted onto kidney capsule.
To determine the effects of Tranilast on tumor initiation, immediately after subcapsular injection of cells mice (10 per group) will be treated i.p. daily for 3 weeks with vehicle (1% DMSO) or Tranilast (50 mg/kg/day) (Kim et al., “Effects of tranilast and pentoxifylline in a mouse model of chronic asthma using house dust mite antigen,” The Journal of asthma: official journal of the Association for the Care of Asthma (2009) 46: 884-894) at which point the animals are sacrificed and tumors excised, weighed and measured and subjected for further analyses detailed below.
To determine tumor progression in an additional four groups (10/group), LMSC cells are injected under the kidney capsule and tumors are allowed to develop for five weeks. Mice are then injected i.p. daily for 3 more weeks with vehicle or Tranilast (50 mg/kg/day) (Kim et al., “Effects of tranilast and pentoxifylline in a mouse model of chronic asthma using house dust mite antigen,” The Journal of asthma: official journal of the Association for the Care of Asthma (2009) 46: 884-894) at which time the animals are sacrificed and tumors excised, weighed, measured and subjected for further analysis.
For tumor analysis, portions of tumors are allocated for RNA and protein extraction, and the remainder fixed in 4% neutral-buffered formalin and embedded in paraffin (FFPE) for histologic analysis. To assess the rate of collagen deposition, 5 μm cut paraffin sections are subjected to histologic analysis and stained with Masson's Trichrome and Sirius Red (Sigma-Aldrich), and images are analyzed by Image-Pro Plus software (Media Cybernetics) as described in detail in our prior publications (Khorram et al., “Nutrient restriction in utero induces remodeling of the vascular extracellular matrix in rat offspring,” Reproductive sciences (2007) 14: 73-80; Khorram et al., “In utero undernutrition in rats induces increased vascular smooth muscle content in the offspring, American journal of obstetrics and gynecology (2007) 196: 486.e481-488). For Immunohistochemistry, the sections are de-paraffinized in xylene, and heated in 0.01 M citrate buffer for 15 min in a microwave oven. Slides are then incubated in methanol containing 0.3% hydrogen peroxide. Slides are incubated with primary antibody or control serum, washed, and followed by application of secondary antibody. The chromogen used is diaminobenzidine (DAKO). […]

[1] = test system: 3′UTR of CDK2 in lung cancer cell line A549; assay: 3′UTR luciferase reporter assay in A549; format: cell-based; conditions: Tranilast
[2] = test system: 3′UTR of COL3A1 in lung cancer cell line A549; assay: 3′UTR luciferase reporter assay in A549; format: cell-based; conditions: Tranilast

In the case of `COc1ccc(C=CC(=O)Nc2ccccc2C(=O)O)cc1OC` [Tranilast, 2-[[3-(3,4-dimethoxyphenyl)-1-oxo-2-propenyl]amino]benzoic acid], the “3′UTR activity of COL3A1 (relative luciferase activity, Firefly:Renilla)” value (3′UTR of COL3A1) is reported as “suppressed”, the “NF-kB signaling in xenograft” value (leiomyoma xenografts) is reported as “inhibition” and the “cell proliferation (Ki-67 and PCNA labeling index)” value (leiomyoma xenografts) is reported as “reduce”. For the same molecule, the leiomyoma size (leiomyoma xenografts) was “shrinkage”, the “methytransferases (DNMT1) in xenograft” value (leiomyoma xenografts) was “inhibition” and the “miR-29c expression in xenograft” value (leiomyoma xenografts) was “up-regulate”. For the same molecule, the “miR-200c expression in xenograft” value (leiomyoma xenografts) was “up-regulate”, the “rate of collagen deposition (Sirius Red staining)” value (leiomyoma xenografts) was “reduce” and the “activity of luciferase reporter containing 3′UTR of CDK2” value [1] was “Inhibits”. For the same molecule, the “activity of luciferase reporter containing 3′UTR of COL3A1” value [2] was “Inhibits”.
